Test results: PubChem BioAssay AID2060498 (Molecular Pharmacology Branch, DTP, NCI, 2025)
Where “and” joins values, the source holds several entries; their conditions need not be identical. Equal values may be shown once. Each block holds one compound with its values, some of them ahead of it.

Tested on: 171881-019-R-J1-PDC tumor spheroids, viability
Assay: Anticancer human tumor 171881-019-R-J1-PDC patient-derived invasive breast carcinoma cell line growth inhibition [GQUAD]
Settings: spheroids with HUVEC and MSC; for viability, T/C: stronger effect = lower value
Description: DNA G-quadruplex Stabilizer Agents in Combinations in Complex Spheroids
A high-throughput screen of multi-cell type tumor spheroids was designed to identify active combinations of DNA G-quadruplex stabilizer agents and targeted small molecules. Complex spheroids include a stromal component modeled by human endothelial cells (HUVEC) and fibroblasts modeled by human mesenchymal stem cells (MSCs). The concentration ranges selected for each drug and investigational agent were based upon clinically achievable concentrations if the clinical Cmax of the agent was known.
Compounds. The drugs and investigational agents: pidnarulex (CX-5461; NSC782164), APTO-253 (NSC789042), BRACO-19 (NSC847499), peposertib (NSC802822), ceralasertib (NSC780249), elimusertib (NSC800525), camonsertib (NSC841442), AZD-1390 (NSC803789), olaparib (NSC753686), talazoparib (NSC767125), ART-558 (NSC835418), sotorasib (NSC818433), MRTX-1133 (NSC836407), SN-38 (NSC673596), topotecan (NSC609699), etoposide (NSC141540), doxorubicin (NSC123127), gemcitabine (NSC613327), 5-fluorouracil (NSC19893), paclitaxel (NSC125973), vemurafenib (NSC761431), panobinostat (NSC761190), R-306465 (JNJ-16241199; NSC773264), adavosertib (NSC754352), TP-3654 (NSC805149), carboplatin (NSC241240), KSQ-4279 (NSC840948), and staurosporine (NSC755774) were obtained from the National Cancer Institute (NCI) Developmental Therapeutics Program Chemical Repository (34). The FDA-approved anticancer drug set is available from the NCI Developmental Therapeutics Program. […] The stock solutions were prepared in dimethyl sulfoxide (DMSO, Sigma-Aldrich, St. Louis, MO, cat. D2650) at 800-fold the tested concentration and stored at -70 degrees C prior to their use. All drugs and investigational agents were tested over a range starting from a high concentration at or near the clinical Cmax and decreasing in half-log increments. If the clinical Cmax for an agent had not been determined, the highest concentration tested was 10 microM.
2.3 Cell Culture. All cells were maintained in an incubator at 37 degrees C and 5% CO2 with 95% humidity. The PDC lines were cultured according to standard operating procedures established by the NCI PDMR. All PDCs were thawed and cultured in Matrigel-coated flasks prepared with a working solution of 1X Ham's F-12 nutrient mix, without supplementation (Invitrogen, cat. 11765054), 100 U/mL penicillin-streptomycin (Invitrogen, cat. 15140122), and 2.5% Matrigel (Corning Inc., cat. 354248) for the first three passages. The 857933-349-R-J2-PDC line was cultured in 6C/Colon 1B media, which includes advanced DMEM/F-12 (Thermo Fisher Scientific, cat. 12634028), 10 mM HEPES (Thermo Fisher Scientific, cat. 15630080), 1X GlutaMAX supplement (Thermo Fisher Scientific, cat. 35050061), 0.1 mg/mL primocin (InvivoGen, cat. ant-pm-2), 10% defined fetal bovine serum, heat inactivated (HyClone Laboratories Inc., cat. SH30070.03HI), 50% L-WRN conditioned media (ATCC, cat. CRL-3276), 1.25 mM N-Acetyl-L-cysteine (Sigma-Aldrich, cat. A9165), 10 mM nicotinamide (Sigma-Aldrich, cat. N0636), 1X B-27 supplement (Thermo Fisher Scientific, cat. 17504044), 1X N-2 supplement (Thermo Fisher Scientific, cat. 17502048), 10 microM Y-27632 dihydrochloride (Tocris Bioscience, cat. 1254), and 50 ng/mL human EGF recombinant protein (Thermo Fisher Scientific, cat. PHG0311). The 485176-168-R4-J1-PDC line was cultured in Panc media, which includes all 6C/Colon 1B media components plus 100 ng/mL human FGF-10 (Thermo Fisher Scientific, cat. 100-26), 500 nM SB-431542 (Selleckchem, cat. S1067), and gastrin (Tocris, cat. 3006).
[…]
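Note: spheroids exposed to compounds for 7 days.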
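Throughout, for viability, T/C: 100% = DMSO vehicle control viability.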

SMILES: C#Cc1c(F)ccc2cc(O)cc(-c3ncc4c(N5CC6CCC(C5)N6)nc(OCC56CCCN5CC(F)C6)nc4c3F)c12 (stereo not drawn) + Cc1[nH]c2ccc(F)cc2c1-c1nc2c3cccnc3c3ncccc3c2[nH]1
IC50 (curve of first compound, second compound 0.0316 µM): 599 nM
IC50 (curve of first compound, second compound 0.1 µM): 573 nM
IC50 (curve of first compound, second compound 0.316 µM): 282 nM
IC50 (curve of first compound, second compound 1 µM): 44.9 nM
IC50 (curve of first compound, second compound 3.16 µM): < 31.6 nM
IC50 (curve of first compound, second compound 10 µM): < 31.6 nM
viability, T/C (second compound 0.0316 µM, first compound 0.0316 µM): 103%
viability, T/C (second compound 0.0316 µM, first compound 0.1 µM): 69.3%
viability, T/C (second compound 0.0316 µM, first compound 0.316 µM): 60.6%
viability, T/C (second compound 0.0316 µM, first compound 1 µM): 42.9%
viability, T/C (second compound 0.0316 µM, first compound 3.16 µM): 24.6%
viability, T/C (second compound 0.0316 µM, first compound 10 µM): 7.54%
viability, T/C (second compound 0.1 µM, first compound 0.0316 µM): 92.8%
viability, T/C (second compound 0.1 µM, first compound 0.1 µM): 75.1%
viability, T/C (second compound 0.1 µM, first compound 0.316 µM): 59%
viability, T/C (second compound 0.1 µM, first compound 1 µM): 41.2%
viability, T/C (second compound 0.1 µM, first compound 3.16 µM): 25.1%
viability, T/C (second compound 0.1 µM, first compound 10 µM): 6.93%
viability, T/C (second compound 0.316 µM, first compound 0.0316 µM): 82.7%
viability, T/C (second compound 0.316 µM, first compound 0.1 µM): 62.3%
viability, T/C (second compound 0.316 µM, first compound 0.316 µM): 46.7%
viability, T/C (second compound 0.316 µM, first compound 1 µM): 31%
viability, T/C (second compound 0.316 µM, first compound 3.16 µM): 30%
viability, T/C (second compound 0.316 µM, first compound 10 µM): 4.2%
viability, T/C (second compound 1 µM, first compound 0.0316 µM): 55.6%
viability, T/C (second compound 1 µM, first compound 0.1 µM): 39.8%
viability, T/C (second compound 1 µM, first compound 0.316 µM): 36.8%
viability, T/C (second compound 1 µM, first compound 1 µM): 23.4%
viability, T/C (second compound 1 µM, first compound 3.16 µM): 22.9%
viability, T/C (second compound 1 µM, first compound 10 µM): 0.29%
viability, T/C (second compound 3.16 µM, first compound 0.0316 µM): 6.7%
viability, T/C (second compound 3.16 µM, first compound 0.1 µM): 3.48%
viability, T/C (second compound 3.16 µM, first compound 0.316 µM): 3.47%
viability, T/C (second compound 3.16 µM, first compound 1 µM): 2.21%
viability, T/C (second compound 3.16 µM, first compound 3.16 µM): 1.89%
viability, T/C (second compound 3.16 µM, first compound 10 µM): 0.17%
viability, T/C (second compound 10 µM, first compound 0.0316 µM): 23.8%
viability, T/C (second compound 10 µM, first compound 0.1 µM): 27.4%
viability, T/C (second compound 10 µM, first compound 0.316 µM): 15.8%
viability, T/C (second compound 10 µM, first compound 1 µM): 15%
viability, T/C (second compound 10 µM, first compound 3.16 µM): 6.1%
viability, T/C (second compound 10 µM, first compound 10 µM): 0.16%

IC50 (curve of compound): < 31.6 nM
SMILES: Nc1ccn(C2OC(CO)C(O)C2(F)F)c(=O)n1 (stereo not drawn)
viability, T/C (compound 0.0316 µM): 24% and 35.9% and 25.5%
viability, T/C (compound 0.1 µM): 30.8% and 38.8% and 28.2%
viability, T/C (compound 0.316 µM): 39.4% and 47.6% and 37.4%
viability, T/C (compound 1 µM): 37.8% and 48.4% and 37.6%
viability, T/C (compound 3.16 µM): 35.4% and 45.9% and 35.1%
viability, T/C (compound 10 µM): 31.4% (2×) and 44%

IC50 (curve of compound): > 316 nM
SMILES: Cn1ncnc1[C@H]1c2n[nH]c(=O)c3cc(F)cc(c23)N[C@@H]1c1ccc(F)cc1
viability, T/C (compound 0.000999 µM): 108% and 102% and 105%
viability, T/C (compound 0.00316 µM): 94.8% and 103% and 86.1%
viability, T/C (compound 0.00999 µM): 95% and 95.7% and 88.2%
viability, T/C (compound 0.0316 µM): 86.3% and 102% and 97.5%
viability, T/C (compound 0.0999 µM): 88.8% and 91.6% and 81.5%
viability, T/C (compound 0.316 µM): 94.1% and 80.5% and 73.1%

IC50 (curve of compound): 255 nM and 224 nM and 201 nM
SMILES: O=C(NO)c1cnc(N2CCN(S(=O)(=O)c3ccc4ccccc4c3)CC2)nc1
viability, T/C (compound 0.0316 µM): 77.1% and 89.5% and 81.1%
viability, T/C (compound 0.1 µM): 74% and 76.3% and 64.2%
viability, T/C (compound 0.316 µM): 44.3% and 39.6% and 41.4%
viability, T/C (compound 1 µM): 0.86% and 0.61% and 2.4%
viability, T/C (compound 3.16 µM): 0.14% and 0.11% and 0.19%
viability, T/C (compound 10 µM): 0.33% and 0.21% and 0.18%
